Two molecules from ChEMBL document CHEMBL4613241, “Disulfide Cleavage in a Dimeric Epipolythiodioxopiperazine Natural Product Diminishes Its Apoptosis-Inducing Effect but Enhances Autophagy in Tumor Cells” (2020) can be followed below.

The subject of assay [1] is HepG2. Put plainly: Induction of autophagy in human HepG2 cells assessed as inhibition of lactate generation at 5 uM up to 4 hrs. Type of assay: functional, cell-based.
The subject of assay [2] is HeLa. Description: Inhibition of colony formation in human HeLa at 1 to 5 uM after 2 weeks by trypan blue staining based assay. The assay is classed as functional, cell-based.
The test system of assay [3] is HepG2. Put plainly: Induction of autophagy in human HepG2 cells assessed as increase in formation of autophagosome-like vacuoles at 0.5 uM after 2 to 48 hrs by TEM analysis. The assay is classed as functional, cell-based.
In a further assay the test system is HCT-116. Put plainly: Inhibition of colony formation in human HCT116 at 1 to 5 uM after 2 weeks by trypan blue staining based assay. The assay is classed as functional, cell-based.
The test system of assay [4] is HepG2. Description: Induction of apoptosis in human HepG2 cells assessed as increase in cleaved PARP1 level at 5 uM after 12 hrs by Western blot analysis. Type of assay: functional, cell-based.
For assay [5], the system named is HepG2. Description: Induction of apoptosis in human HepG2 cells assessed as increase in cleaved PARP level by measuring ratio of cleaved PARP to total PARP level at 0.5 uM after 12 hrs by Western blot analysis. Type of assay: functional.
In a further assay the test system is T-24. Put plainly: Induction of apoptosis in human T24 cells assessed as increase in cleaved PARP1 level at 0.25 to 2 uM after 12 hrs by Western blot analysis. The assay is classed as functional, cell-based. For orientation: A western blot detects proteins with antibodies after separation by electrophoresis.
The test system of assay [6] is HepG2. Put plainly: Induction of ROS generation in human HepG2 cells at 0.5 uM by DCFH-DA staining based fluorescence assay. The assay is classed as functional, cell-based. Particulars: TDE = time-dependent effect.
Assay [7] has as its system HepG2. Put plainly: Induction of autophagy in human HepG2 cells assessed as inhibition of lactate generation at 0.5 uM up to 4 hrs. Type of assay: functional, cell-based.
The test system of assay [8] is HepG2. Put plainly: Induction of autophagy in human HepG2 cells assessed as increase in formation of autophagosomes at 0.5 uM by TEM analysis. Particulars: TDE = time-dependent effect. The assay is classed as functional, cell-based.
Assay [9] concerns HeLa. Description: Inhibition of colony formation in human HeLa at 0.1 uM after 2 weeks by trypan blue staining based assay relative to control. Type of assay: functional. Particulars: 336 h.

Each structure is given as a SMILES string. Activity calls are given as the source filed them. The rule behind the calls is not given here.

`CCC1(SC)C(=O)N2[C@H]3N(C)c4ccccc4C3(C34c5ccccc5N(C)[C@@H]3N3C(=O)C(SC)([C@@H](C)O)N(C)C(=O)C3(SC)[C@H]4O)[C@H](O)C2(SC)C(=O)N1C` (stereo partly specified): the inhibition entry with HepG2 [1], in the assay with HeLa [2] and in the assay with HCT-116 was “Active” throughout. In addition, the result with HepG2 [3] was Active. Further, the outcome with HepG2 [4] was inactive.
Turning to `CC[C@@]12SS[C@]3(C(=O)N1C)[C@@H](O)C1(C45c6ccccc6N[C@@H]4N4C(=O)[C@]6([C@@H](C)O)SS[C@]4(C(=O)N6C)[C@H]5O)c4ccccc4N[C@@H]1N3C2=O` (stereo partly specified), in the assay with HepG2 [5], the Ratio is 0.1. In addition, the outcome in the assay with T-24 was Active. Moreover, the Activity entry with HepG2 [6] and in the assay on HepG2 [8] was “Tde” in each case. Also, in the assay with HepG2 [7], the inhibition (commonly how much of the control response was suppressed) was “Active”. The molecule further displayed an inhibition at 0.1 µM in the assay with HeLa [9] of 100%.
